Results on 13 compounds are retold here after patent US20240368150A1 (Hoffmann-La Roche Inc., priority 2021, published 2024).

Where two headings read alike, the source gives them in different places.

One test has as its system MV-3 cells. Kind of test: T-cell - TCB - MV3 killing assay (MCSP-TCB, RFP object count by Incucyte). The format is cell-based, human. The settings on record: 5 d; for Emax: read-out: MSCP TCB killing MV-3 cells 5 d Emax; for EC50: primary human T-cells + MCSP-TCB, MV-3 RFP cells, read-out: MSCP TCB killing MV-3 cells 5 d EC50.
Test [1] has as its system primary human T-cells. Put plainly: Proliferation assay after 5 days (CellTiter-Glo, CD3 stimulation; PBS counter screen). To be noted: CD3 stimulation; for Emax / Emax proliferation (% activation): 5 days, normalized to reference compound A1 as stimulator control = 100%, DMSO neutral control; for Emax: read-out: Emax proliferation (% activation); for EC50: primary human T-cells, CellTiter-Glo after 5 days, EC50 of fitted sigmoidal curve, read-out: Tcell Proliferation CD3 EC50. The format is cell-based. The method, boiled down: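 Read-out: CellTiter-Glo 2.0 luminescence (ATP ∝ cell number) at day 5 after compound addition. Compounds activating unstimulated cells or reducing viability flagged.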

The next test deals with hDGKzeta(1-928)-N-His (Homo sapiens (Human), UniProt Q13574). Kind of test: DGKzeta ADP Glo assay (in vitro DGK inhibition). To be noted: DLG 125 uM, ATP 50 μM, DGK ζ 2 nM, 1 hour reaction. The format is biochemical. In a few lines:
(§1)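 His-tagged human DGKα (4 nM) and DGKζ (2 nM) phosphorylate DLG presented in DLG/PS/PC liposomes using ATP; reaction run 1 hour. ADP formed measured by ADP-Glo luminescence. Compounds tested as 11-point 1:3 dose response […], 2% DMSO final.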

In test [2] the test system is primary human T-cells.
Another test addresses hDGKalpha(1-735)-N-His (Homo sapiens (Human), UniProt P23743). Kind of test: DGKalpha ADP Glo assay (in vitro DGK inhibition). The format is biochemical. The settings on record: DLG 125 uM, ATP 25 μM, DGK α 4 nM, 1 hour reaction. The method, boiled down:
as §1

[3] abbreviates: Homo sapiens, MV-3, 120 h, normalized: MCSP-TCB only = neutral control, 20 μM reference compound A1 = 100%.

Chain of hDGKzeta(1-928)-N-His (Q13574 whole entry): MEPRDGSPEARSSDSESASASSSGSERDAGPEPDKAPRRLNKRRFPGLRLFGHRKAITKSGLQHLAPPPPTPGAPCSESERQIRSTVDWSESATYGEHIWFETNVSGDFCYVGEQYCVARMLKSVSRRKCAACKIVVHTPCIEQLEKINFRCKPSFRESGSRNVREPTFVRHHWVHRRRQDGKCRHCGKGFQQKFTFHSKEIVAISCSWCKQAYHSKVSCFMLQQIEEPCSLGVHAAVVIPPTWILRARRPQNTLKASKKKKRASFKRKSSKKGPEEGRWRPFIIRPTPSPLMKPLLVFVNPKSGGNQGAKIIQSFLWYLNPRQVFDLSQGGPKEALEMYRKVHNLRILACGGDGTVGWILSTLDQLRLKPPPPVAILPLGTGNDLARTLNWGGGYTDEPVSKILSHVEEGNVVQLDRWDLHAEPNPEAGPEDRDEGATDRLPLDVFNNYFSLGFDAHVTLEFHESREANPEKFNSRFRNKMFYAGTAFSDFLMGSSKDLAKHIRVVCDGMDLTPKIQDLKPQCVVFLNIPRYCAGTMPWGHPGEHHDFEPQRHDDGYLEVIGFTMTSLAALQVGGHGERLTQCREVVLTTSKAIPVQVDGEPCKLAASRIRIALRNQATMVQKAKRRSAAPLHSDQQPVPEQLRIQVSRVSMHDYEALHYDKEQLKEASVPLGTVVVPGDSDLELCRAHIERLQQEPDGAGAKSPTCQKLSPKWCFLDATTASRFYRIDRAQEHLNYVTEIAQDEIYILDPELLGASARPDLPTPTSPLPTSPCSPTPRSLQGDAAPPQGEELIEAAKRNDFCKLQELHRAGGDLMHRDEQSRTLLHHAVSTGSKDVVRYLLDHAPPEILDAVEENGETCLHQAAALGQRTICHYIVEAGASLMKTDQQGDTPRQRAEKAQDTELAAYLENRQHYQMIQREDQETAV
Chain of hDGKalpha(1-735)-N-His (P23743 whole entry): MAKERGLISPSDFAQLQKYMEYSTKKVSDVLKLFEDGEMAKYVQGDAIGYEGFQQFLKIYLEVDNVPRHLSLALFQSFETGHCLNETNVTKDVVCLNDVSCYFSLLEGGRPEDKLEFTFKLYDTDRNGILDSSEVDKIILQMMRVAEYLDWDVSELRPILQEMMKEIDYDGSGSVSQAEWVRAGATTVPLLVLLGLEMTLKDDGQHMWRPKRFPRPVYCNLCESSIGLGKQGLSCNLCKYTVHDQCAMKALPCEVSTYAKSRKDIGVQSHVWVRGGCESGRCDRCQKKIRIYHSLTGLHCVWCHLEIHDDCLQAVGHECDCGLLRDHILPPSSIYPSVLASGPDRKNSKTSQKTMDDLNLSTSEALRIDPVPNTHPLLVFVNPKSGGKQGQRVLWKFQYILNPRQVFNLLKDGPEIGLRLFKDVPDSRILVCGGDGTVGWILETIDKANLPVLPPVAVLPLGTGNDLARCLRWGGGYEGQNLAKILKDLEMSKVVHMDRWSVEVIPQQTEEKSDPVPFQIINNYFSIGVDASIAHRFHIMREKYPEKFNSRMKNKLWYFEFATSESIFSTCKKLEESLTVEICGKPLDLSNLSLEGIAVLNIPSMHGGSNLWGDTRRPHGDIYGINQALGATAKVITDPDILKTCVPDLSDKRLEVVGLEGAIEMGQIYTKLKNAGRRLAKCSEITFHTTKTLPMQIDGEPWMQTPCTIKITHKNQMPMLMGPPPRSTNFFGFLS

For `CN1CCCC(F)(c2nnc(-c3ccc4c(c3)N(Cc3ccc(Cl)cc3)C(=O)[C@@H](N)CS4(=O)=O)o2)C1` (stereo partly drawn) [Example 384, (3R)-3-amino-5-[(4-chlorophenyl)methyl]-7-[5-(3-fluoro-1-methyl-3-piperidyl)-1,3,4-oxadiazol-2-yl]-1,1-dioxo-2,3-dihydro-1λ^6,5-benzothiazepin-4-one], the Emax in the test with MV-3 cells (setting [3]) stood at 110%; in the test with primary human T-cells [1] (Homo sapiens, T-cell, 120 h), 112%. In addition, the EC50 with MV-3 cells (Homo sapiens, MV-3, 120 h) came out at 990 nM; in the test on primary human T-cells [1] (Homo sapiens, T-cell, 120 h), 698 nM; with primary human T-cells [2], 792 nM. The IC50 on hDGKzeta(1-928)-N-His turned out to be 2250 nM; against hDGKalpha(1-735)-N-His it was 4580 nM.

Regarding `N[C@H]1C[S+]([O-])c2cc(F)c(-c3noc(N4CCOC5CC54)n3)cc2N(Cc2ccc(Cl)cc2)C1=O` (single isomer, unassigned; epimer a) [Example 207], the Emax in the test with MV-3 cells (setting [3]) stood at 90%. Moreover, the EC50 is 160 nM in the test with MV-3 cells (Homo sapiens, MV-3, 120 h); 1860 nM in the test with primary human T-cells [1]; 4380 nM in the test with primary human T-cells [2]. For the same compound, in the test on primary human T-cells [1], the “Emax proliferation (% activation)” value was found to be 280 % activation. Moreover, the IC50 against hDGKzeta(1-928)-N-His is 193 nM; against hDGKalpha(1-735)-N-His it was above 62500 nM.

`N[C@H]1CS(=O)(=O)c2ccc(-c3nnc(C4(C5CC5)CCCO4)o3)cc2N(Cc2ccc(Cl)cc2)C1=O` (stereo partly drawn) [Example 381, (3R)-3-amino-5-[(4-chlorophenyl)methyl]-7-[5-(2-cyclopropyltetrahydrofuran-2-yl)-1,3,4-oxadiazol-2-yl]-1,1-dioxo-2,3-dihydro-1λ^6,5-benzothiazepin-4-one]: the Emax came to 101% with MV-3 cells (setting [3]) and 119% in the test with primary human T-cells [1] (Homo sapiens, T-cell, 120 h). Besides, the EC50 in the test on MV-3 cells (Homo sapiens, MV-3, 120 h) amounted to 160 nM; with primary human T-cells [1] (Homo sapiens, T-cell, 120 h), 2420 nM; with primary human T-cells [2], 2400 nM. The IC50 was 658 nM against hDGKzeta(1-928)-N-His and 3310 nM against hDGKalpha(1-735)-N-His.

As to `N[C@H]1CS(=O)(=O)c2ccc(-c3nnc(C4(N)CCCCC4)o3)cc2N(Cc2ccc(OC(F)(F)F)cc2)C1=O` [Example 417, (3R)-3-amino-7-[5-(1-aminocyclohexyl)-1,3,4-oxadiazol-2-yl]-1,1-dioxo-5-[[4-(trifluoromethoxy)phenyl]methyl]-2,3-dihydro-1λ^6,5-benzothiazepin-4-one], the Emax stood at 182% in the test on MV-3 cells (setting [3]) and 70% in the test with primary human T-cells [1] (Homo sapiens, T-cell, 120 h). The EC50 came out at 1860 nM in the test with MV-3 cells (Homo sapiens, MV-3, 120 h); 337 nM in the test on primary human T-cells [1] (Homo sapiens, T-cell, 120 h); 328 nM with primary human T-cells [2]. The IC50 on hDGKzeta(1-928)-N-His is 2110 nM; at hDGKalpha(1-735)-N-His, 6410 nM.

With `CC(C)(C)c1nnc(-c2cc3c(cc2F)S(=O)(=O)C[C@H](N)C(=O)N3Cc2ccc(OC(F)(F)F)cc2)o1` [Example 57, (3R)-3-Amino-7-(5-tert-butyl-1,3,4-oxadiazol-2-yl)-8-fluoro-1,1-dioxo-5-[[4-(trifluoromethoxy)phenyl]methyl]-2,3-dihydro-1λ^6,5-benzothiazepin-4-one], the Emax worked out at 100% in the test with MV-3 cells (setting [3]) and 231% with primary human T-cells [1] (Homo sapiens, T-cell, 120 h). The EC50 with MV-3 cells (Homo sapiens, MV-3, 120 h) amounted to 50 nM; in the test with primary human T-cells [1] (Homo sapiens, T-cell, 120 h), 32.7 nM; in the test on primary human T-cells [2] it was 36.7 nM. The IC50 against hDGKzeta(1-928)-N-His stood at 254 nM; at hDGKalpha(1-735)-N-His it was 210 nM.

Consider `N[C@H]1CS(=O)(=O)c2ccc(-c3nnc(N4CCOC(C(F)(F)F)C4)o3)cc2N(Cc2ccc(Cl)cc2)C1=O` (stereo partly drawn) [Example 412, (3R)-3-amino-5-[(4-chlorophenyl)methyl]-1,1-dioxo-7-[5-[2-(trifluoromethyl)morpholin-4-yl]-1,3,4-oxadiazol-2-yl]-2,3-dihydro-1λ^6,5-benzothiazepin-4-one], for which the Emax came to 92% in the test with MV-3 cells (setting [3]) and 126% in the test with primary human T-cells [1] (Homo sapiens, T-cell, 120 h). Besides, the EC50 is 140 nM in the test on MV-3 cells (Homo sapiens, MV-3, 120 h); 176 nM in the test with primary human T-cells [1] (Homo sapiens, T-cell, 120 h); 2360 nM with primary human T-cells [2]. Also, the IC50 against hDGKzeta(1-928)-N-His is 484 nM; against hDGKalpha(1-735)-N-His it was 2690 nM.

Turning to `CC(C)(C)n1nnc(-c2cc3c(cc2F)S(=O)(=O)C[C@H](NC(=O)CN)C(=O)N3Cc2ccc(Cl)cc2)n1` [Example 29, 2-amino-N-[(3R)-7-(2-tert-butyltetrazol-5-yl)-5-[(4-chlorophenyl)methyl]-8-fluoro-1,1,4-trioxo-2,3-dihydro-1lambda6,5-benzothiazepin-3-yl]acetamide], the Emax in the test with MV-3 cells (setting [3]) came to 95%; with primary human T-cells [1] (Homo sapiens, T-cell, 120 h) it was 172%. Moreover, the EC50 in the test on MV-3 cells (Homo sapiens, MV-3, 120 h) came to 37 nM; with primary human T-cells [1] (Homo sapiens, T-cell, 120 h), 93.6 nM; in the test with primary human T-cells [2], 855 nM. For the same compound, the IC50 was 33100 nM against hDGKzeta(1-928)-N-His and above 62500 nM against hDGKalpha(1-735)-N-His.

`CC(C)(C)c1nnc(-c2cc3c(cc2F)S(=N)(=O)C[C@H](N)C(=O)N3Cc2ccc(OC(F)(F)F)cc2)o1` (single isomer, unassigned) [Example 517]: the Emax in the test with MV-3 cells (setting [3]) turned out to be 79%. Besides, the EC50 stood at 330 nM in the test on MV-3 cells, 2930 nM in the test with primary human T-cells [1] and 299 nM in the test with primary human T-cells [2]. Besides, the “Emax proliferation (% activation)” value with primary human T-cells [1] was 90 % activation. For the same compound, the results for the IC50 at hDGKzeta(1-928)-N-His and at hDGKalpha(1-735)-N-His were 316 nM and 272 nM, respectively.

Take `CC(C)(C)c1nnc(-c2cc3c(cc2F)[S+]([O-])C[C@H](N)C(=O)N3Cc2ccc(OC(F)(F)F)cc2)o1` (stereo partly drawn) [Example 62, (3R)-3-amino-7-(5-tert-butyl-1,3,4-oxadiazol-2-yl)-8-fluoro-1-oxo-5-[[14-(trifluoromethoxy)phenyl]methyl]-2,3-dihydro-1λ^4,5-benzothiazepin-4-one]: in the test with MV-3 cells (setting [3]), the Emax came out at 81%. Moreover, the EC50 in the test on MV-3 cells (Homo sapiens, MV-3, 120 h) amounted to 260 nM; in the test on primary human T-cells [1] it was 721 nM; in the test on primary human T-cells [2] it was 149 nM. For the same compound, the “Emax proliferation (% activation)” value in the test on primary human T-cells [1] was 88 % activation. For the same compound, the IC50 at hDGKzeta(1-928)-N-His was found to be 622 nM; against hDGKalpha(1-735)-N-His it was 452 nM.

For the compound `CC(C)(C)c1nnc(-c2cc3c(cc2F)[S+]([O-])C[C@H](N)C(=O)N3Cc2ccc(OC(F)(F)F)cc2)o1` (single isomer, unassigned; epimer a) [Example 452], the “MSCP TCB killing MV-3 cells 5 d Emax” value with MV-3 cells (normalized: MCSP-TCB only = neutral control, 20 μM reference compound A1 = 100%) came to 81%. The EC50 in the test with MV-3 cells amounted to 230 nM; in the test on primary human T-cells [1] (Homo sapiens, T-cell, 120 h), 468 nM; in the test with primary human T-cells [2], 121 nM. Further, the “Emax proliferation (% activation)” value in the test with primary human T-cells [1] was determined as 165 % activation. The values for the IC50 against hDGKzeta(1-928)-N-His and against hDGKalpha(1-735)-N-His were 400 nM and 340 nM, respectively.

As to `N[C@H]1CS(=O)(=O)c2cc(F)c(-c3nnc(NC4CCCCC4)o3)cc2N(Cc2ccc(Cl)cc2)C1=O` [Example 466, (3R)-3-amino-5-[(4-chlorophenyl)methyl]-7-[5-(cyclohexylamino)-1,3,4-oxadiazol-2-yl]-8-fluoro-1,1-dioxo-2,3-dihydro-λ^6,5-benzothiazepin-4-one], the Emax was 95% with MV-3 cells (setting [3]) and 103% in the test with primary human T-cells [1] (Homo sapiens, T-cell, 120 h). Moreover, the EC50 in the test with MV-3 cells (Homo sapiens, MV-3, 120 h) is 240 nM; in the test with primary human T-cells [1] (Homo sapiens, T-cell, 120 h), 454 nM; in the test with primary human T-cells [2], 458 nM. Besides, the results for the IC50 against hDGKzeta(1-928)-N-His and at hDGKalpha(1-735)-N-His were 1030 nM and 2090 nM, respectively.

For `CC(C)(C)c1nnc(-c2ccc3c(c2)N(Cc2ccc(Cl)cc2)C(=O)[C@@H](N)CS3(=O)=O)o1` [Example 361], the Emax in the test with MV-3 cells (setting [3]) stood at 100%; in the test on primary human T-cells [1] (Homo sapiens, T-cell, 120 h), 100%. Also, the EC50 is 560 nM in the test on MV-3 cells (Homo sapiens, MV-3, 120 h); 361 nM with primary human T-cells [1] (Homo sapiens, T-cell, 120 h); 525 nM in the test on primary human T-cells [2]. Moreover, the IC50 against hDGKzeta(1-928)-N-His stood at 933 nM; against hDGKalpha(1-735)-N-His, 876 nM.

`CC(C)(C)c1nnc(-c2cc3c(cc2F)S(=O)(=O)C[C@H](NC(=O)CN)C(=O)N3Cc2ccc(Cl)cc2)o1` [Example 266, 2-amino-N-[(3R)-7-(5-tert-butyl-1,3,4-oxadiazol-2-yl)-5-[(4-chlorophenyl)methyl]-8-fluoro-1,1,4-trioxo-2,3-dihydro-1λ^6,5-benzothiazepin-3-yl]acetamide]: the Emax in the test with MV-3 cells (setting [3]) stood at 76%; with primary human T-cells [1] (Homo sapiens, T-cell, 120 h) it was 137%. For the same compound, the EC50 came to 20 nM in the test on MV-3 cells (Homo sapiens, MV-3, 120 h); 77.5 nM in the test on primary human T-cells [1] (Homo sapiens, T-cell, 120 h); 214 nM with primary human T-cells [2]. Moreover, the figures for the IC50 at hDGKzeta(1-928)-N-His and against hDGKalpha(1-735)-N-His were 40100 nM and 54500 nM, respectively.
